According to patent publication US10618913B2, “Macrocycles as PDE1 inhibitors” (H. Lundbeck A/S, priority 2017, dated 2020):
Where two headings read alike, the source gives them in different places.

Legend:
Type in all cases: biochemical
[1] = molecular target: PDE1A (Homo sapiens (Human), UniProt P54750); test: PDE1 inhibition assay (SPA, tritium labelled cAMP), PDE1A; conditions: Table 1, compounds of the invention; 15 nM tritium labelled cAMP
Experimental: (§1) Reactions were initiated by addition of the cyclic nucleotide substrate, and reactions were allowed to proceed for 1 hr at room temperature before being terminated through mixing with 20 μL (0.2 mg) yttrium silicate SPA beads (PerkinElmer).

[2] = molecular target: PDE1B (Homo sapiens (Human), UniProt Q01064); test: PDE1 inhibition assay (SPA, tritium labelled cAMP), PDE1B
Experimental: as §1

[3] = molecular target: PDE1C (Homo sapiens (Human), UniProt Q14123); test: PDE1 inhibition assay (SPA, tritium labelled cAMP), PDE1C; conditions: Table 1, compounds of the invention; 15 nM tritium labelled cAMP
Experimental: Reactions were initiated by addition of the cyclic nucleotide substrate, and reactions were allowed to proceed for 1 hr at room temperature before being terminated through mixing with 20 μL (0.2 mg) yttrium silicate SPA beads (PerkinElmer). The beads were allowed to settle for 1 hr in the dark before the plates were counted in a Wallac 1450 Microbeta counter.

[4] = Table 1, compounds of the invention, 15 nM tritium labelled cAMP, read-out: PDE1B, IC50

Sequence of PDE1C (Q14123 whole entry): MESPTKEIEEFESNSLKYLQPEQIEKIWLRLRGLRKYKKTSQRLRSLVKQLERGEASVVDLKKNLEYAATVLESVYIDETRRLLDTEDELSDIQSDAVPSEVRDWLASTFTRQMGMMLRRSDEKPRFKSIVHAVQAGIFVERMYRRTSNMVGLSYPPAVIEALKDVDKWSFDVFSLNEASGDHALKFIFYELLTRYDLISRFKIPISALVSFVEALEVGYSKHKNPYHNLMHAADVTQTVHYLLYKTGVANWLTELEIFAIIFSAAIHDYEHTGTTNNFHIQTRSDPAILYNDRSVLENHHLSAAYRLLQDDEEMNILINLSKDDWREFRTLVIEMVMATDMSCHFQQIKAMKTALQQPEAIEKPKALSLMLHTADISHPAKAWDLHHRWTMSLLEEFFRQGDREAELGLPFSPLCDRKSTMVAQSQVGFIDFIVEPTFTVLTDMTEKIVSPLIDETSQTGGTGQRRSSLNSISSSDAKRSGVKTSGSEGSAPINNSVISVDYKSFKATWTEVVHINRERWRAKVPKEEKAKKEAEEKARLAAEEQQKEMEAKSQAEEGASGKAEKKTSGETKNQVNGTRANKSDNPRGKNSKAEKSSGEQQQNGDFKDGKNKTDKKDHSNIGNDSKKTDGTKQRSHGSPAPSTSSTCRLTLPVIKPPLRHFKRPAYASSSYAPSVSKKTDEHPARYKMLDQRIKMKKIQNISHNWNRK
Sequence of PDE1B (Q01064 whole entry): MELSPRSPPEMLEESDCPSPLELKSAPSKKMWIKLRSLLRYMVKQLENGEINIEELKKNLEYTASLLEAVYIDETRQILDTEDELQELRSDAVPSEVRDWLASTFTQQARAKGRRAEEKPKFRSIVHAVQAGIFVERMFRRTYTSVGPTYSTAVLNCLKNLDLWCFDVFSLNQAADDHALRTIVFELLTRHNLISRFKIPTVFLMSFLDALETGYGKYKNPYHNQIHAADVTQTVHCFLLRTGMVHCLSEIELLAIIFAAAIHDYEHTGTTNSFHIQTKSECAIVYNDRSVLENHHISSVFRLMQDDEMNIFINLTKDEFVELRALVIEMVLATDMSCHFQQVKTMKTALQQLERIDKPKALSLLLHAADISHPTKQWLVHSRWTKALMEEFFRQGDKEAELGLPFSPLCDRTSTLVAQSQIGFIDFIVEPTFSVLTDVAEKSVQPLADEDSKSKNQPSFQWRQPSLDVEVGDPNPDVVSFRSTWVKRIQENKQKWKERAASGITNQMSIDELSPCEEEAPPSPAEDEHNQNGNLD
Sequence of PDE1A (P54750 whole entry): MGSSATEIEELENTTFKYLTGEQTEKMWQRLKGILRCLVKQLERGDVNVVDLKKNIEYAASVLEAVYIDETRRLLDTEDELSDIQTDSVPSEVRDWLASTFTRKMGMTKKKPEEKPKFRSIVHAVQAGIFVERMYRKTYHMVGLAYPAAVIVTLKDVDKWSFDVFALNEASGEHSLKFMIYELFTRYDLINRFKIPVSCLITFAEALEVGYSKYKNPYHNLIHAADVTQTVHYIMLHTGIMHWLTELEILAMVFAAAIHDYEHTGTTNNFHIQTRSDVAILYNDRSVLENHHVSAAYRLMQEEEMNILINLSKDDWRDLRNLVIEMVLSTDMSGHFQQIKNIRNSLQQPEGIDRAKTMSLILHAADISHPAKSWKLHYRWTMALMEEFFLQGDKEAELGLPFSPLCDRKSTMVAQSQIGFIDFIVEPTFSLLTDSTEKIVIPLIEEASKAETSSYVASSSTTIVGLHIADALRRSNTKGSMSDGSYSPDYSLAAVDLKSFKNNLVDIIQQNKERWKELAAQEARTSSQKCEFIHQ

IC50 [1] [µM] | IC50 [2] [µM] | IC50 [3] [µM] | IC50 [2, 4] [µM] | inhibition at 10 µM ([2]; read-out: PDE1B, inhibition at 10 μM) [%] | SMILES
0.012 | 0.0014 | 0.02 |  |  | Cc1nn(C(C)C)c2c3cc(nc12)-c1cccnc1OCCCCOc1ncccc1CN3 [Example 1, 2^1-isopropyl-2^3-methyl-2^1H-6,11-dioxa-3-aza-2(5,7)-pyrazolo[4,3-b]pyridina-1,5(3,2)-dipyridinacycloundecaphane]
0.018 |  | 0.054 | 0.0015 |  | Cc1nn(C(C)C)c2c3cc(nc12)-c1cccnc1OCCCCCOc1ncccc1CN3 [Example 2, 2^1-isopropyl-2^3-methyl-2^1H-6,12-dioxa-3-aza-2(5,7)-pyrazolo[4,3-b]pyridina-1,5(3,2)-dipyridinacyclododecaphane]
0.038 |  | 0.069 | 0.0042 |  | Cc1nn(C(C)C)c2c3cc(nc12)-c1cccnc1OCCCOc1ncccc1CN3 [Example 3, 2^1-isopropyl-2^3-methyl-2^1H-6,10-dioxa-3-aza-2(5,7)-pyrazolo[4,3-b]pyridina-1,5(3,2)-dipyridinacyclodecaphane]
0.0026 |  | 0.016 | 0.00054 |  | Cc1nn(C(C)C)c2c3cc(nc12)-c1cccnc1OCCOCCOc1ncccc1CN3 [Example 4, 2^1-isopropyl-2^3-methyl-2^1H-6,9,12-trioxa-3-aza-2(5,7)-pyrazolo[4,3-b]pyridina-1,5(3,2)-dipyridinacyclododecaphane]
0.025 |  | 0.08 | 0.0047 |  | Cc1nn(C(C)C)c2c3cc(nc12)-c1cccnc1OCCCCCn1nccc1CN3 [Example 5, 2^1-isopropyl-2^3-methyl-2^1H,5^1H-11-oxa-3-aza-2(5,7)-pyrazolo[4,3-b]pyridina-1(3,2)-pyridina-5(5,1)-pyrazolacycloundecaphane]
0.00047 |  | 0.0039 | 0.00027 |  | Cc1nn(C(C)C)c2c3cc(nc12)-c1cccnc1OCCCCOc1cccnc1CN3 [Example 6, 2^1-isopropyl-2^3-methyl-2^1H-6,11-dioxa-3-aza-2(5,7)-pyrazolo[4,3-b]pyridina-1(3,2),5(2,3)-dipyridinacycloundecaphane]
0.428 |  | 0.497 | 0.095 |  | Cc1nn(C)c2c3cc(nc12)-c1cccnc1OCCCCOc1ncccc1CN3 [Example 7, 2^1,2^3-dimethyl-2^1H-6,11-dioxa-3-aza-2(5,7)-pyrazolo[4,3-b]pyridina-1,5(3,2)-dipyridinacycloundecaphane]
0.256 |  | 0.412 | 0.036 |  | CCn1nc(C)c2nc3cc(c21)NCc1cccnc1OCCCCOc1ncccc1-3 [Example 8, 2^1-ethyl-2^3-methyl-2^1H-6,11-dioxa-3-aza-2(5,7)-pyrazolo[4,3-b]pyridina-1,5(3,2)-dipyridinacycloundecaphane]
0.053 |  | 0.056 | 0.015 |  | Cc1nn(C(C)C)c2c3cc(nc12)-c1cccnc1OCCCCn1nccc1CN3 [Example 9, 2^1-isopropyl-2^3-methyl-2^1H,5^1H-10-oxa-3-aza-2(5,7)-pyrazolo[4,3-b]pyridina-1(3,2)-pyridina-5(5,1)-pyrazolacyclodecaphane]
0.01 |  | 0.017 |  | > 99 | Cc1nn(C(C)C)c2c3cc(nc12)-c1cccnc1OCCCCOc1nccnc1CN3 [Example 10, 2^1-isopropyl-2^3-methyl-2^1H-6,11-dioxa-3-aza-2(5,7)-pyrazolo[4,3-b]pyridina-5(2,3)-pyrazina-1(3,2)-pyridinacycloundecaphane]
